Source: patent publication US20030207819A1, “Compositions and methods for treating inflammatory connective tissue diseases” (priority 2002, published 2003)

Key:
Assay type in all cases: in vivo, human
[1] = system: patient with undifferentiated connective tissue disease; experiment: Example 2: clarithromycin re-challenge of Example 1 patient, symptoms and laboratory assessments
Description: Subsequent to the observations made in Example 1, the patient was re-challenged with clarithromycin, and re-evaluated as to symptomatic efficiency. In parallel with clinical observations, laboratory assessments including erythrocyte sedimentation rate, C-reactive protein, and serum interleukins 1 and 6 were measured. The laboratory results are illustrated in Table 1.
On Jul. 29, 2002 the clarithromycin treatment of the patient from Example 1 was discontinued (Table 1). Their additional medications included: ZESTRIL® (Astra Zenica) at 1 mg/t.i.d., CALTRATE® with Vitamin D (Wyeth)/b.i.d., UNITHROID™ (Jerome Stevens Pharmaceuticals, Inc.) at 0.05 mg/day, TROZODONE® (Watson Laboratories, Inc.) at 50 mg/h.s., TYLENOL® (McNeil Consumer Brands) at 1 gm/p.r.n., multi-vitamins/p.r.n., iron tablets, quinine at 260 mg, and non-specific herbs. […] When the patient was observed on Aug. […] The symptoms were sufficiently severe that they asked to be restarted on clarithromycin. When observed on Aug. 15, 2002, they stated they had become “100% better” by Aug. 11, 2002. The patient was continued on clarithromycin at 500 mg b.i.d. and observed serially at weekly intervals on Aug. 22, 2002, Aug. 27, 2002, and Sep. 5, 2002.
These findings are similar to their clinical history over the past several years with respect to clarithromycin therapy and response of connective tissue symptoms.

[2] = system: patient with undifferentiated connective tissue disease; experiment: Example 6: clarithromycin trial, VAS and joint assessment; settings: for Patient VAS (Pain): baseline 89; for Practitioner VAS (Global): baseline 60; for Patient VAS (Global): baseline 63
Excerpt: A patient, was first seen in September 1999. […] They have used a number of anti-inflammatory agents frequently for therapy.
On the basis of the findings, including recurrent episodes of arthritis, Raynaud's, and thickening of the hands, connective tissue disease diagnoses such as Mixed Connective Tissue Disease or Progressive Systemic Sclerosis were considered.
Based on these findings, a diagnosis of Undifferentiated Connective Tissue Disease was made. Therapy was initiated with hydroxychloroquine ([…]®, Sanofi-Synthelabo, Inc.) and a non-steroidal anti-inflammatory agent. They utilized steroid dose packs periodically for symptomatic relief of their peripheral symptoms as well as their neck symptoms.
On examination, they had symptoms and findings much as before and a diagnosis of Undifferentiated Connective Tissue Disease was made. The patient agreed to undergo a trial with clarithromycin.
Following screening and baseline evaluations, the patient was begun on clarithromycin (BIAXIN®, Abbott Laboratories).
25, 2003 (“Visit 3”), for their first recheck visit.
When seen for their one month evaluation, the patient had been off steroid medication for approximately ten days.
Further assessment of their status was made on Apr. 13, 2003 at which time they were now off steroids for almost a one-month period.
Patient was again seen Apr. 21, 2003 (“Visit Four”), for their formal two-month follow-up on clarithromycin.

[3] = system: patient with undifferentiated connective tissue disease; experiment: Example 1: clinical observation of patient on clarithromycin; settings: person
Excerpt: We elected to continue them on this antibiotic. […] Because the patient was on Lodine (NSAID) at the same time, we elected to see if they could stop the Lodine and still have relief of symptoms.

[4] = system: patient with low-grade connective tissue symptoms; experiment: Example 5: clarithromycin study, VAS and joint assessment
Excerpt: In 1991, it was elected to begin the patient on hydroxychloroquine ([…]®, Sanofi-Synthelabo, Inc.) given their low-grade connective tissue symptoms not responding to non-steroidal anti-inflammatory therapy. […] A trial of hydroxychloroquine was again initiated to see how they would tolerate it. […] Hydroxychloroquine was discontinued when they wanted to attempt getting pregnant again. Therapy most recently consisted of non-steroidal inflammatory agents and physical therapy.
On Feb. 27, 2003, the patient agreed to participate in the clarithromycin study. […] The patient was begun on clarithromycin (BIAXIN®, Abbott Laboratories) 500 mg twice per day.

[5] = Aug. 8, 2002, 10 days off clarithromycin
[6] = Aug. 15, 2002, clarithromycin restarted
[7] = Aug. 22, 2002, on clarithromycin
[8] = Aug. 27, 2002, on clarithromycin
[9] = Jul. 29, 2002, on clarithromycin 500 mg BID
[10] = Sep. 5, 2002, on clarithromycin
[11] = Visit Four, Apr. 21, 2003, clarithromycin for two months
[12] = Visit Four, clarithromycin for two months
[13] = Visit Three, clarithromycin for one month, baseline 3
[14] = Visit Three, clarithromycin for one month

side reaction ([2]; Apr. 13, 2003, on clarithromycin): bad taste
side reaction [2, 11]: mild bad taste
side reaction ([4]; clarithromycin 500 mg twice per day, one month): metallic taste
Compound: CC[C@H]1OC(=O)[C@H](C)[C@@H](O[C@H]2C[C@@](C)(OC)[C@@H](O)[C@H](C)O2)[C@H](C)[C@@H](O[C@@H]2O[C@H](C)C[C@H](N(C)C)[C@H]2O)[C@](C)(OC)C[C@@H](C)C(=O)[C@H](C)[C@@H](O)[C@]1(C)O [clarithromycin, 6-O-methylerythromycin]
ESR [1, 5]: 25 mm/hr
IL-6 [1, 5]: 2.1 pg/mL
Symptoms [1, 5]: generalized joint pain, associated with swelling
Symptoms ([1]; Aug. 15, 2002, clarithromycin 500 mg b.i.d. restarted, better on Aug. 11, 2002): 100% better
CPR [1, 6]: <0.3 mg/dL
ESR [1, 6]: 21 mm/hr
IL-6 [1, 6]: 0.9 pg/mL
CPR [1, 7]: <0.3 mg/dL
ESR [1, 7]: 34 mm/hr
IL-6 [1, 7]: 0.7 pg/mL
Symptoms ([1]; Aug. 22, 2002, on clarithromycin 500 mg b.i.d.): Doing well
CPR [1, 8]: <0.3 mg/dL
ESR [1, 8]: 21 mm/hr
IL-6 [1, 8]: 1.1 pg/mL
Symptoms ([1]; Aug. 27, 2002, on clarithromycin 500 mg b.i.d.): Doing well
CPR [1, 9]: <0.3 mg/dL
ESR [1, 9]: 29 mm/hr
Symptoms ([1]; Jul. 29, 2002, on clarithromycin 500 mg po BID, discontinued at this visit): Good Control
CPR [1, 10]: <0.3 mg/dL
ESR [1, 10]: 34 mm/hr
IL-6 [1, 10]: 1 pg/mL
Symptoms ([1]; Sep. 5, 2002, on clarithromycin 500 mg b.i.d.): Doing well
change in ESR, CRP, Interleukin-1, or Interleukin-6 ([1]; over the re-challenge Jul. 29 to Sep. 5, 2002): no significant change
pain VAS, patient rating ([2]; Apr. 13, 2003, on clarithromycin, off steroids almost one month): 25 mm
patient statement of improvement [2, 11]: 80% better
Patient VAS (Pain) [2, 11]: 11 mm
Practitioner VAS (Global) [2, 12]: 4 mm
Patient VAS (Global) [2, 12]: 14 mm
Patient VAS (Pain) ([2]; Visit Three, Mar. 25, 2003, clarithromycin for one month, off steroid about ten days): 16 mm
Tender/Painful Joints [2, 13]: 0
Practitioner VAS (Global) [2, 14]: 31 mm
Patient VAS (Global) [2, 14]: 51 mm
Symptoms ([3]; back on 500 mg/bid after 250 mg/bid): improved essentially completely
symptoms with respect to connective tissue changes ([3]; clarithromycin 500 mg b.i.d. begun December 1998): significantly improved
Symptoms ([3]; dose reduced to 250 mg/bid): symptoms returned
undifferentiated connective disease status ([3]; last seen Feb. 12, 2002, continued clarithromycin): under control
joint symptoms ([3]; reduced dose of 750 mg/day): increased swelling of the hands, painful wrists, knee swelling and hand stiffness
Patient VAS (Pain) ([4]; Visit Three, Apr. 2, 2003, clarithromycin 500 mg twice per day for one month, VAS 0 to 100 mm, baseline 67): 26 mm
joint pain, patient statement ([4]; Visit Three, clarithromycin 500 mg twice per day): became better pretty much right away
joint tenderness and swelling on physical examination [4, 14]: decreased joint tenderness and swelling
Tender/Painful Joints [4, 13]: 0
Swollen Joints ([4]; Visit Three, clarithromycin for one month, baseline 6): 1
Patient VAS (Global) ([4]; Visit Three, clarithromycin for one month, baseline 30): 12 mm
Practitioner VAS (Global) ([4]; Visit Three, clarithromycin for one month, baseline 54): 25 mm
